Structures are written as SMILES.

This note sets out measurements from patent US20100144733A1, “Compounds, compositions and methods comprising heteroaromatic derivatives” (Institute for OneWorld Health, priority 2008, published 2010).

T1 sequence (P13569 whole entry): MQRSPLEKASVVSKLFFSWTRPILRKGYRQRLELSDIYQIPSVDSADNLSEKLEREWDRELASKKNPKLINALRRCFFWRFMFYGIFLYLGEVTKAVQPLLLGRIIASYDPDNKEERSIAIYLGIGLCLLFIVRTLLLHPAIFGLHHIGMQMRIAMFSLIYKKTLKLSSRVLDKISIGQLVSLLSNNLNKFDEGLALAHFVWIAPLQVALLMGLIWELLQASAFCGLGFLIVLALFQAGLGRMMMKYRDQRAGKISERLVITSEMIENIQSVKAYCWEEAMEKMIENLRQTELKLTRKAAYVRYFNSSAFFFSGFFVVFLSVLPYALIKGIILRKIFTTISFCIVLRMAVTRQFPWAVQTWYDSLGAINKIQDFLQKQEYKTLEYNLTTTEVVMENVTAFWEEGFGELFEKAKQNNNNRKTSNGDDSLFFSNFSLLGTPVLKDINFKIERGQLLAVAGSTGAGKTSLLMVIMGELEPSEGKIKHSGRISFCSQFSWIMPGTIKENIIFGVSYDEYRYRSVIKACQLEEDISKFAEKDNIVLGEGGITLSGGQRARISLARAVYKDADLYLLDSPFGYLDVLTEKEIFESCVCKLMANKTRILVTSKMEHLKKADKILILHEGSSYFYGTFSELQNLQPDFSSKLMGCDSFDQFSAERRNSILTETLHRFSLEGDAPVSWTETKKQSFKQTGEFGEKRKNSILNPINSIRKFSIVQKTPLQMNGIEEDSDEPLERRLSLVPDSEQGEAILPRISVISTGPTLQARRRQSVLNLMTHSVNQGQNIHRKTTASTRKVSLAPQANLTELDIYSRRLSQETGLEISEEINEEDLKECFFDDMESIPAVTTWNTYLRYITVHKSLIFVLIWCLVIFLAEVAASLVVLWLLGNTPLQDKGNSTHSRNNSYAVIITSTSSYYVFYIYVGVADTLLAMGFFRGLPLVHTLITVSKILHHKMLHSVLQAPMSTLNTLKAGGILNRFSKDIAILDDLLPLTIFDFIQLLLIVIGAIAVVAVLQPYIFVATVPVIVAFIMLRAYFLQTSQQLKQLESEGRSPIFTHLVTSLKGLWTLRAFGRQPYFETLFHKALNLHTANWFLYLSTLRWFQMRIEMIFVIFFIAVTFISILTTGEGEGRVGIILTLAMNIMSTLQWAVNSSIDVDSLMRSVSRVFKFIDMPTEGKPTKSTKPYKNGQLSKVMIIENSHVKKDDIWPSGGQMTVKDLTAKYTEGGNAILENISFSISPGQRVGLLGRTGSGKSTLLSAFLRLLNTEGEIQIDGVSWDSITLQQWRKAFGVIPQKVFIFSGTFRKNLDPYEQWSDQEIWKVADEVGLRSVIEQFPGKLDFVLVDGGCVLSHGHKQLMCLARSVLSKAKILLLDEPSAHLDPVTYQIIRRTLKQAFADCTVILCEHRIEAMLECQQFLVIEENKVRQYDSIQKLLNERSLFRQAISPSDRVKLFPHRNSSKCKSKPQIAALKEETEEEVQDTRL

The first experiment has as its target T1, CFTR (Homo sapiens, UniProt P13569).
T1 construct: endogenous in cells; host or cells: T84 human colonic cells (ECACC)
Put plainly: T84 assay (FLIPR membrane potential dye, forskolin/IBMX-stimulated CFTR channel activity). The class given is cell-based. Conditions: imidazole and triazole-containing compounds (Tables 13, 14, 14′), read-out: IC50 (μM) (T84 assay). As to the method: (§1) For example, Human colonic T84 cells can be acquired from the European Collection of Cell Cultures (ECACC) and grown in standard culture conditions as described by the supplier. On the day before assay 25,000 T84 cells per well are plated into standard black walled, clear bottom 384-well assay plates in standard growth medium consisting of DMEM:F12 with 10% FBS and incubated overnight. On the day of the assay the plates are washed using a standard assay buffer (HBSS with 10 mM Hepes) and incubated for 15 minutes in serum free cell culture medium before the addition of a commercially available membrane potential sensitive fluorescent dye (FLIPRRed membrane potential dye, Molecular Devices Corporation). T84 cells are incubated with the FLIPRRed membrane potential dye for 45 minutes in the presence and absence of test compound before being transferred to a commercially available fluorescence imaging plate reader (FLIPR384, Molecular Devices Corporation). Fluorescence levels are monitored continuously every second for 150 seconds; after an initial 10 second baseline, CFTR channel activity is stimulated through the addition of 10 μM forskolin in the presence of 100 μM of the phosphodiesterase inhibitor iso-butyl-methylxanthine (IBMX). Addition of the forskolin leads to the activation of intracellular adenylyl cylase 1, elevating cAMP levels and results in the phosphorylation and opening of CFTR anion channels. CFTR channel opening causes chloride ion efflux and subsequent depolarization of the cells, which is measured by an increase in fluorescence. CFTR inihibitor compounds prevent cell depolarization and the associatred increase in fluorescence.
as §1, with “Human colonic” for “For example, Human colonic”, “T84 cells are acquired from” for “T84 cells can be acquired from”, “(ECACC) and are grown in” for “(ECACC) and grown in”, “10 μM Forskolin in the” for “10 μM forskolin in the”, “fluorescence. CFTR inhibitor compounds prevent” for “fluorescence. CFTR inihibitor compounds prevent”, “and the associated increase in” for “and the associatred increase in”
Consider `COCCOCCOCCOCCON(Cc1ccc(Oc2ccccc2)cc1)C(=O)c1ncn(-c2cc(Cl)c(O)c(Cl)c2)n1` [122i, N-(2,5,8,11-tetraoxatridecan-13-yloxy)-1-(3,5-dichloro-4-hydroxyphenyl)-N-(4-phenoxybenzyl)-1H-1,2,4-triazole-3-carboxamide], for which the concentration for half-maximal inhibition (IC50) was 5.11 µM.
On the same count and under the same terms, to `O=C(NCc1ccc(-c2ccc(C(F)(F)F)cn2)cc1)c1ncn(-c2cc(Cl)c(O)c(Cl)c2)n1` [39i, 1-(3,5-dichloro-4-hydroxyphenyl)-N-(4-(5-(trifluoromethyl)pyridin-2-yl)benzyl)-1H-1,2,4-triazole-3-carboxamide] belongs 2.51 µM.

Still in this experiment, the particulars now being: oxadiazole-containing compounds (a series), average of at least 2 runs unless annotated n = 1, read-out: IC50.
In the case of `O=C(NCc1ccc2sccc2c1)c1nc(-c2cc(Br)c(O)c(Br)c2)no1` [10a, N-(benzo[b]thiophen-5-ylmethyl)-3-(3,5-dibromo-4-hydroxyphenyl)-1,2,4-oxadiazole-5-carboxamide], the IC50 was found to be 7.26 µM.
On the same count and under the same terms, to `O=C(NCc1ccc(F)c(C(F)(F)F)c1)c1noc(-c2cc(Cl)c(O)c(Cl)c2)n1` [159a, 5-(3,5-dichloro-4-hydroxyphenyl)-N-(4-fluoro-3-(trifluoromethyl)benzyl)-1,2,4-oxadiazole-3-carboxamide] belongs 4.83 µM.
Same read-out and setting: with `O=C(NCC(c1ccccc1)c1ccccc1)c1nc(-c2cc(Br)c(O)c(Br)c2)no1` [9a, 3-(3,5-dibromo-4-hydroxyphenyl)-N-(2,2-diphenylethyl)-1,2,4-oxadiazole-5-carboxamide] the figure was 7.17 µM; with `CC(C)(C)C(=O)CN(Cc1ccc(Oc2ccccc2)cc1)C(=O)c1nc(-c2cc(Cl)c(O)c(Cl)c2)no1` [165a, 3-(3,5-dichloro-4-hydroxyphenyl)-N-(3,3-dimethyl-2-oxobutyl)-N-(4-phenoxybenzyl)-1,2,4-oxadiazole-5-carboxamide], 11.5 µM.
As for `CN(Cc1ccc(-c2ncccn2)cc1)C(=O)c1nc(-c2cc(Cl)c(O)c(Cl)c2)no1` [189a, 3-(3,5-dichloro-4-hydroxyphenyl)-N-methyl-N-(4-(pyrimidin-2-yl)benzyl)-1,2,4-oxadiazole-5-carboxamide], the IC50 was 16.9 µM.
On the same count and under the same terms, to `CC(C)Oc1ccc(CNC(=O)c2nc(-c3cc(Cl)c(O)c(Cl)c3)no2)cc1` [127a, 3-(3,5-dichloro-4-hydroxyphenyl)-N-(4-isopropoxybenzyl)-1,2,4-oxadiazole-5-carboxamide] belongs 9.95 µM; to `Cc1ccc(CNC(=O)c2noc(-c3cc(Cl)c(O)c(Cl)c3)n2)cc1` [81a, 5-(3,5-dichloro-4-hydroxyphenyl)-N-(4-methylbenzyl)-1,2,4-oxadiazole-3-carboxamide], 14.8 µM; to `O=C(c1nc(-c2cc(Cl)c(O)c(Cl)c2)no1)N(Cc1ccc(Oc2ccccc2)cc1)Cc1cccnc1` [168a, 3-(3,5-dichloro-4-hydroxyphenyl)-N-(4-phenoxybenzyl)-N-(pyridin-3-ylmethyl)-1,2,4-oxadiazole-5-carboxamide], 2.11 µM.
Same read-out and setting: to `O=C(c1nc(-c2cc(Br)c(O)c(Br)c2)no1)N1CCN(c2ccccc2)CC1` [16a, (3-(3,5-dibromo-4-hydroxyphenyl)-1,2,4-oxadiazol-5-yl)(4-phenylpiperazin-1-yl)methanone] belongs 9.13 µM; to `O=C(NCc1ccccc1Cl)c1noc(-c2cc(Cl)c(O)c(Cl)c2)n1` [83a, N-(2-chlorobenzyl)-5-(3,5-dichloro-4-hydroxyphenyl)-1,2,4-oxadiazole-3-carboxamide], 7.28 µM; to `O=C(NCc1ccc(F)cc1)c1noc(-c2cc(Cl)c(O)c(Cl)c2)n1` [115a, 5-(3,5-dichloro-4-hydroxyphenyl)-N-(4-fluorobenzyl)-1,2,4-oxadiazole-3-carboxamide], 11.8 µM.
On the same count and under the same terms, with `CC(C)(C)C(=O)CN(Cc1ccc(F)c(F)c1)C(=O)c1nc(-c2cc(Cl)c(O)c(Cl)c2)no1` [152a, 3-(3,5-dichloro-4-hydroxyphenyl)-N-(3,4-difluorobenzyl)-N-(3,3-dimethyl-2-oxobutyl)-1,2,4-oxadiazole-5-carboxamide] the figure was 8.88 µM; with `CN(C)c1cccc(Oc2ccc(CNC(=O)c3nc(-c4cc(Cl)c(O)c(Cl)c4)no3)cc2)c1` [199a, 3-(3,5-dichloro-4-hydroxyphenyl)-N-(4-(3-(dimethylamino)phenoxy)benzyl)-1,2,4-oxadiazole-5-carboxamide], 12.2 µM.
As for `O=C(NC(c1ccccc1)c1ccccc1)c1nc(-c2cc(Cl)c(O)c(Cl)c2)no1` [15a, N-benzhydryl-3-(3,5-dichloro-4-hydroxyphenyl)-1,2,4-oxadiazole-5-carboxamide], the IC50 amounted to 9 µM.
Still for that read-out and setting: to `CN(C)c1ccc(Oc2ccc(CNC(=O)c3nc(-c4cc(Cl)c(O)c(Cl)c4)no3)cc2)cc1` [197a, 3-(3,5-dichloro-4-hydroxyphenyl)-N-(4-(4-(dimethylamino)phenoxy)benzyl)-1,2,4-oxadiazole-5-carboxamide] belongs 7.76 µM; to `O=C(c1nc(-c2cc(Br)c(O)c(Br)c2)no1)N1CCN(c2cccc(C(F)(F)F)c2)CC1` [6a, (3-(3,5-dibromo-4-hydroxyphenyl)-1,2,4-oxadiazol-5-yl)(4-(3-(trifluoromethyl)phenyl)piperazin-1-yl)methanone], 6.19 µM.
For `CCc1ccc(CN(C)C(=O)c2nc(-c3cc(Cl)c(O)c(Cl)c3)no2)cc1` [150a, 3-(3,5-dichloro-4-hydroxyphenyl)-N-(4-ethylbenzyl)-N-methyl-1,2,4-oxadiazole-5-carboxamide], the half-maximal inhibitory concentration (IC50) is 6.25 µM.
Same read-out and setting: to `O=C(Nc1cccc(OC(F)(F)F)c1)c1nc(-c2cc(Br)c(O)c(Br)c2)no1` [24a, 3-(3,5-Dibromo-4-hydroxyphenyl)-N-(3-(trifluoromethoxy)phenyl)-1,2,4-oxadiazole-5-carboxamide] belongs 13.1 µM; to `O=C(c1noc(-c2cc(Cl)c(O)c(Cl)c2)n1)N(CCNCc1ccccc1)Cc1ccccc1` [119a, N-benzyl-N-(2-(benzylamino)ethyl)-5-(3,5-dichloro-4-hydroxyphenyl)-1,2,4-oxadiazole-3-carboxamide], 24.1 µM.
Consider `O=C(NCc1ccc(Oc2ccc(F)cc2)cc1)c1nc(-c2cc(Cl)c(O)c(Cl)c2)no1` [171a, 3-(3,5-dichloro-4-hydroxyphenyl)-N-(4-(4-fluorophenoxy)benzyl)-1,2,4-oxadiazole-5-carboxamide], for which the half-inhibitory concentration (IC50) is 7.44 µM.
For the compound `CC(C)(C)C(=O)CN(Cc1cccc(OC(F)(F)F)c1)C(=O)c1nc(-c2cc(Cl)c(O)c(Cl)c2)no1` [164a, 3-(3,5-dichloro-4-hydroxyphenyl)-N-(3,3-dimethyl-2-oxobutyl)-N-(3-(trifluoromethoxy)benzyl)-1,2,4-oxadiazole-5-carboxamide], the concentration for half-maximal inhibition (IC50) came out at 12.9 µM.
Still for that read-out and setting: with `O=C(NCc1cccc(OC(F)(F)F)c1)c1noc(-c2cc(Cl)c(O)c(Cl)c2)n1` [75a, 5-(3,5-dichloro-4-hydroxyphenyl)-N-(3-(trifluoromethoxy)benzyl)-1,2,4-oxadiazole-3-carboxamide] the figure was 2.09 µM; with `O=C(NCc1cccc(OCc2ccccc2)c1)c1nc(-c2cc(Cl)c(O)c(Cl)c2)no1` [141a, N-(3-(benzyloxy)benzyl)-3-(3,5-dichloro-4-hydroxyphenyl)-1,2,4-oxadiazole-5-carboxamide], 7.79 µM; with `CN(Cc1ccc(F)c(F)c1)C(=O)c1noc(-c2cc(Cl)c(O)c(Cl)c2)n1` [117a, 5-(3,5-dichloro-4-hydroxyphenyl)-N-(3,4-difluorobenzyl)-N-methyl-1,2,4-oxadiazole-3-carboxamide], 19.9 µM.
Still for that read-out and setting: with `CC(C)(C)C(=O)CN(Cc1ccccc1)C(=O)c1nc(-c2cc(Cl)c(O)c(Cl)c2)no1` [151a, N-benzyl-3-(3,5-dichloro-4-hydroxyphenyl)-N-(3,3-dimethyl-2-oxobutyl)-1,2,4-oxadiazole-5-carboxamide] the figure was 6.24 µM.
Same read-out and setting: to `CN(Cc1ccc(-c2ccccn2)cc1)C(=O)c1nc(-c2cc(Cl)c(O)c(Cl)c2)no1` [186a, 3-(3,5-dichloro-4-hydroxyphenyl)-N-methyl-N-(4-(pyridin-2-yl)benzyl)-1,2,4-oxadiazole-5-carboxamide] belongs 5.66 µM; to `O=C(c1nc(-c2cc(Cl)c(O)c(Cl)c2)no1)N(Cc1cccnc1)Cc1cccnc1` [162a, 3-(3,5-dichloro-4-hydroxyphenyl)-N,N-bis(pyridin-3-ylmethyl)-1,2,4-oxadiazole-5-carboxamide], 9.24 µM.

The term IC50 denotes the concentration at which inhibition is half-maximal.
